Experiments:
human MER (528-end) = target: T1, human MER (528-end) (Homo sapiens, UniProt Q12866); test: HTRF kinase activity biochemical assay, MER; settings: 10 μM ATP, 30 minutes pre-incubation; read-out: HTRF MERTK IC50
T1 construct: human MER (528-end); purchased Camnabio, Japan
T1 sequence (Q12866 528-999 limits assumed): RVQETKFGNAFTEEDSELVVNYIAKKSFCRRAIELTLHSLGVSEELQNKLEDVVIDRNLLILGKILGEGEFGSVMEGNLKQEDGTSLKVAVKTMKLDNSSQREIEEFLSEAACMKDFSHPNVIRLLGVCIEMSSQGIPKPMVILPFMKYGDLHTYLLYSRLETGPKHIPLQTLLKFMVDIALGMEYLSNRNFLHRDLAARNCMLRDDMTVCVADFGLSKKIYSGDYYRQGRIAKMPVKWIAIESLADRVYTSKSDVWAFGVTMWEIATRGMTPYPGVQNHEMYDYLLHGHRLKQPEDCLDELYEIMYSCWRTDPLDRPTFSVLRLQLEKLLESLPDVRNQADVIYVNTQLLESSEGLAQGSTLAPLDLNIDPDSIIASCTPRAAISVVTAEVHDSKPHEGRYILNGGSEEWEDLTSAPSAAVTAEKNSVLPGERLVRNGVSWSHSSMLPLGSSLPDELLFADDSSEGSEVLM
Protocol: (§1) For the SAR (structure-activity relationship) and compound screening, HTRF (Homogeneous Time Resolved Fluorescence) kinase activity assay was employed for all MER, AXL and TYRO3 kinases using Cisbio HTRF® KinEASE™-TK kit (Cisbio, USA). The kit included biotin-labeled TK substrate, streptavidin-XL665, Eu3+-cryptate-labeled TK antibody and HTRF® Detection buffer. There are two main steps in the kinase assay: kinase reaction and detection of phosphorylated substrate. The reaction was carried out in white low volume 384-well plate (Corning, USA) with 25 nL compound in dimethyl sulfoxide in each well. […] After 1 hour incubation at room temperature, the fluorescence intensity was measured with Envision[…] plate reader (PerkinElmer, USA). Upon excitation at 340 nm by UV, the energy from Eu3+ donor of the antibody is transferred to the FRET acceptor XL665, and […] emits light at 665 nm.

human AXL (473-end) = target: T2, human AXL (473-end) (Homo sapiens, UniProt P30530); test: HTRF kinase activity biochemical assay, AXL; settings: 10 μM ATP, 30 minutes pre-incubation
T2 construct: human AXL (473-end); purchased SignalChem, Canada
T2 sequence (P30530 473-894 limits assumed): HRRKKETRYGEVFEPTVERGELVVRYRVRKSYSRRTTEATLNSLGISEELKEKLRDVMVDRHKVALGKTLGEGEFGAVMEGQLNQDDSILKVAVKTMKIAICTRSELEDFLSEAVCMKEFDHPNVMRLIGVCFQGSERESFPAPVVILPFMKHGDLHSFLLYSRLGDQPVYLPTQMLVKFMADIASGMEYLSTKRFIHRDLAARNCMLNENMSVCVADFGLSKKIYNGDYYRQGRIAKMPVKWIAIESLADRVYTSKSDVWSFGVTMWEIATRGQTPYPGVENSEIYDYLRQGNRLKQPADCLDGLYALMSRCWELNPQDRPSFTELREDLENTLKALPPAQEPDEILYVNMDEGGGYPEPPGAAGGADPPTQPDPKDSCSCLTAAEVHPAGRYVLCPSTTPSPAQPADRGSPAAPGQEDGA
Protocol: as §1

human TYRO3 (455-end) = target: T3, human TYRO3 (455-end) (Homo sapiens, UniProt Q06418); test: HTRF kinase activity biochemical assay, TYRO3; settings: 10 μM ATP, 30 minutes pre-incubation; read-out: HTRF TYRO IC50
T3 construct: TYRO3 (455-end); purchased SignalChem, Canada
T3 sequence (Q06418 455-890 limits assumed): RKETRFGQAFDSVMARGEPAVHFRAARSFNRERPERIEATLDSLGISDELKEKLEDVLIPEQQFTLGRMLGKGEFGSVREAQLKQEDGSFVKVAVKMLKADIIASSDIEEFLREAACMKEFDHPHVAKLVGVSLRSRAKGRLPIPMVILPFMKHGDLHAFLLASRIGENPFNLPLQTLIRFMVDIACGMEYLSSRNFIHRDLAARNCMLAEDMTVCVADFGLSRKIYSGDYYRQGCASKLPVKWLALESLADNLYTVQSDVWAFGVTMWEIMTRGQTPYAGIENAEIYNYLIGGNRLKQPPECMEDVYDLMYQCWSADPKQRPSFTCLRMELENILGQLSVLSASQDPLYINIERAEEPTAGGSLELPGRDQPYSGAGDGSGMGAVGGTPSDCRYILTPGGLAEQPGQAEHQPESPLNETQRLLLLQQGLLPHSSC
Protocol: as §1

SMILES	IC50 (human MER (528-end)) [µM]	IC50 (human AXL (473-end)) [µM]	IC50 (human TYRO3 (455-end)) [µM]
CCCC1(C)CN(C2CCN(CCO)CC2)c2ccc(-c3ccc(CO[C@H]4CCC[C@@H]4NC(=O)c4cc(-c5cnn(C)c5)cnc4N)cc3)cc21 (mixture of isomers) [Example 39, 2-amino-N-{(1S,2S)-2-[(4-{1-[1-(2-hydroxyethyl)piperidin-4-yl]-3-methyl-3-propyl-2,3-dihydro-1H-indol-5-yl}phenyl)methoxy]cyclopentyl}-5-(1-methyl-1H-pyrazol-4-yl)pyridine-3-carboxamide]	< 0.01	< 0.01	< 0.01
CCC1(C)CN(C2CCN(CCO)CC2)c2ccc(-c3ccc(CO[C@H]4CCC[C@@H]4NC(=O)c4cc(-c5cnn(C)c5)cnc4N)cc3)cc21 (mixture of isomers) [Example 40, 2-amino-N-{(1S,2S)-2-[(4-{3-ethyl-1-[1-(2-hydroxyethyl)piperidin-4-yl]-3-methyl-2,3-dihydro-1H-indol-5-yl}phenyl)methoxy]cyclopentyl}-5-(1-methyl-1H-pyrazol-4-yl)pyridine-3-carboxamide]	< 0.01	< 0.01	< 0.01
Cn1cc(-c2cnc(N)c(C(=O)N[C@H]3CCC[C@@H]3OCc3ccc(-c4ccc5c(c4)CC(F)(F)C5N4CCN(CC(O)CO)CC4)cc3)c2)cn1 (mixture of isomers) [Example 59, 2-amino-N-{(1S,2S)-2-[(4-{1-[4-(2,3-dihydroxypropyl)piperazin-1-yl]-2,2-difluoro-2,3-dihydro-1H-inden-5-yl}phenyl)methoxy]cyclopentyl}-5-(1-methyl-1H-pyrazol-4-yl)pyridine-3-carboxamide]	< 0.01	< 0.01	0.1 to 1
Cn1cc(-c2cnc(N)c(C(=O)N[C@H]3C[C@H](O)C[C@@H]3OCc3ccc(-c4ccc5c(c4)C(C)(C)CN5C4CCN(CCO)CC4)cc3)c2)cn1 (relative stereo) [Example 38, rel-2-amino-N-{(1S,2S,4S)-4-hydroxy-2-[(4-{1-[1-(2-hydroxyethyl)piperidin-4-yl]-3,3-dimethyl-2,3-dihydro-1H-indol-5-yl}phenyl)methoxy]cyclopentyl}-5-(1-methyl-1H-pyrazol-4-yl)pyridine-3-carboxamide]	< 0.01	< 0.01	0.01 to 0.1
Cn1cc(-c2cnc(N)c(C(=O)N[C@H]3CCC[C@@H]3OCc3ccc(-c4ccc5c(c4)C[C@H](F)[C@@H]5N4CCN(CCO)CC4)cc3)c2)cn1 (relative stereo) [Example 85, 2-amino-N-{(1S,2S)-2-[(4-{(1R*,2S*)-2-fluoro-1-[4-(2-hydroxyethyl)piperazin-1-yl]-2,3-dihydro-1H-inden-5-yl}phenyl)methoxy]cyclopentyl}-5-(1-methyl-1H-pyrazol-4-yl)pyridine-3-carboxamide]	< 0.01	< 0.01	0.1 to 1
Nc1ncc(-c2ccc(F)nc2)cc1C(=O)N[C@H]1CCC[C@@H]1OCc1ccc(-c2ccc3c(c2)C[C@H](F)[C@@H]3N2CCN(CCO)CC2)cc1 (relative stereo) [Example 89, 6-amino-6′-fluoro-N-{(1S,2S)-2-[(4-{(1R*,2S*)-2-fluoro-1-[4-(2-hydroxyethyl)piperazin-1-yl]-2,3-dihydro-1H-inden-5-yl}phenyl)methoxy]cyclopentyl}[3,3′-bipyridine]-5-carboxamide]	< 0.01	< 0.01	> 1
Cn1cc(-c2cnc(N)c(C(=O)N[C@H]3CCC[C@@H]3OCc3ccc(-c4ccc5c(c4)C[C@H](F)[C@@H]5N4CCN(CCO)CC4)cc3)c2)ccc1=O (relative stereo) [Example 90, 6-amino-N-{(1S,2S)-2-[(4-{(1R*,2S*)-2-fluoro-1-[4-(2-hydroxyethyl)piperazin-1-yl]-2,3-dihydro-1H-inden-5-yl}phenyl)methoxy]cyclopentyl}-1′-methyl-6′-oxo-1′,6′-dihydro[3,3′-bipyridine]-5-carboxamide]	< 0.01	< 0.01	> 1
Nc1ncc(-c2ccc(F)nc2)cc1C(=O)N[C@H]1CCC[C@@H]1OCc1ccc(-c2ccc3c(c2)CCC3N2CCN(CC(O)CO)CC2)cc1 (stereo partly drawn) [Example 80, 6-amino-N-{(1S,2S)-2-[(4-{1-[4-(2,3-dihydroxypropyl)piperazin-1-yl]-2,3-dihydro-1H-inden-5-yl}phenyl)methoxy]cyclopentyl}-6′-fluoro[3,3′-bipyridine]-5-carboxamide]		< 0.01	0.1 to 1
Nc1ncc(-c2cccnc2F)cc1C(=O)N[C@H]1CCC[C@@H]1OCc1ccc(-c2ccc3c(c2)CCC3N2CCN(CCO)CC2)cc1 (stereo partly drawn) [Example 82, 6-amino-2′-fluoro-N-{(1S,2S)-2-[(4-{1-[4-(2-hydroxyethyl)piperazin-1-yl]-2,3-dihydro-1H-inden-5-yl}phenyl)methoxy]cyclopentyl}[3,3′-bipyridine]-5-carboxamide]		< 0.01	0.1 to 1
Nc1ncc(-c2ccc(F)nc2)cc1C(=O)N[C@H]1CCC[C@@H]1OCc1ccc(-c2ccc3c(c2)CC[C@@H]3N2CCN(CC(O)CO)CC2)cc1 (stereo partly drawn) [Example 100, 6-amino-N-{(1S,2S)-2-[(4-{(1S)-1-[4-(2,3-dihydroxypropyl)piperazin-1-yl]-2,3-dihydro-1H-inden-5-yl}phenyl)methoxy]cyclopentyl}-6′-fluoro[3,3′-bipyridine]-5-carboxamide]		< 0.01	0.1 to 1
Nc1ncc(-c2cccnc2F)cc1C(=O)N[C@H]1CCC[C@@H]1OCc1ccc(-c2ccc3c(c2)CC[C@@H]3N2CCN(CC(O)CO)CC2)cc1 (stereo partly drawn) [Example 102, 6-amino-N-{(1S,2S)-2-[(4-{(1S)-1-[4-(2,3-dihydroxypropyl)piperazin-1-yl]-2,3-dihydro-1H-inden-5-yl}phenyl)methoxy]cyclopentyl}-2′-fluoro[3,3′-bipyridine]-5-carboxamide]		< 0.01	0.1 to 1
Nc1ncc(-c2cccnc2F)cc1C(=O)N[C@H]1CCC[C@@H]1OCc1ccc(-c2ccc3c(c2)CC[C@@H]3N2CCN(C[C@H](O)CO)CC2)cc1 [Example 166, 6-amino-N-[(1S,2S)-2-({4-[(1S)-1-{4-[(2S)-2,3-dihydroxypropyl]piperazin-1-yl}-2,3-dihydro-1H-inden-5-yl]phenyl}methoxy)cyclopentyl]-2′-fluoro[3,3′-bipyridine]-5-carboxamide]		< 0.01	0.1 to 1
Nc1ncc(-c2cccnc2F)cc1C(=O)N[C@H]1CCC[C@@H]1OCc1ccc(-c2ccc3c(c2)CC[C@@H]3N2CCN(C[C@@H](O)CO)CC2)cc1 [Example 167, 6-amino-N-[(1S,2S)-2-({4-[(1S)-1-{4-[(2R)-2,3-dihydroxypropyl]piperazin-1-yl}-2,3-dihydro-1H-inden-5-yl]phenyl}methoxy)cyclopentyl]-2′-fluoro[3,3′-bipyridine]-5-carboxamide]		< 0.01	0.1 to 1
Nc1ncc(-c2cccnc2F)cc1C(=O)N[C@H]1CCC[C@@H]1OCc1ccc(-c2ccc3c(c2)CCC[C@@H]3N2CCN(C[C@H](O)CO)CC2)cc1 [Example 173, 6-amino-N-[(1S,2S)-2-({4-[(5S)-5-{4-[(2S)-2,3-dihydroxypropyl]piperazin-1-yl}-5,6,7,8-tetrahydronaphthalen-2-yl]phenyl}methoxy)cyclopentyl]-2′-fluoro[3,3′-bipyridine]-5-carboxamide]		< 0.01	0.01 to 0.1
